Assays:
Assay in all cases: relative viability (nuclei count vs DMSO), 5 days (fraction); higher = more cells survive
[1] = compound: CO[C@@H]1[C@H](N(C)C(=O)c2ccccc2)C[C@H]2O[C@]1(C)n1c3ccccc3c3c4c(c5c6ccccc6n2c5c31)C(=O)NC4 [Midostaurin] + CC(=O)c1c(C)c2cnc(Nc3ccc(N4CCNCC4)cn3)nc2n(C2CCCC2)c1=O [Palbociclib] (partner 0.5 µM)
How it was run: (§1)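 One day after seeding in 1536-well plates, lung cancer cell lines were dosed by pin tool. Dosing was either single-drug or a fixed anchor-drug dose plus five library-drug doses (not always all listed) in √10 steps. After 5 days, nuclei were stained in one fix-and-stain step and counted on 4× images, and relative viability is the nuclei count of treated wells over that of vehicle wells, given as the median of duplicate plates.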

Midostaurin + Bortezomib = compound: CO[C@@H]1[C@H](N(C)C(=O)c2ccccc2)C[C@H]2O[C@]1(C)n1c3ccccc3c3c4c(c5c6ccccc6n2c5c31)C(=O)NC4 [Midostaurin] + CC(C)C[C@H](NC(=O)[C@H](Cc1ccccc1)NC(=O)c1cnccn1)B(O)O [Bortezomib] (partner 0.002 µM)
How it was run: as §1

Midostaurin + Linsitinib = compound: CO[C@@H]1[C@H](N(C)C(=O)c2ccccc2)C[C@H]2O[C@]1(C)n1c3ccccc3c3c4c(c5c6ccccc6n2c5c31)C(=O)NC4 [Midostaurin] + C[C@]1(O)C[C@@H](c2nc(-c3ccc4ccc(-c5ccccc5)nc4c3)c3c(N)nccn32)C1 [Linsitinib] (partner 1 µM)
How it was run: as §1

[2] = compound: COc1cc(-c2nn([C@H]3CC[C@H](N4CCN(C(C)=O)CC4)CC3)c3ncnc(N)c23)ccc1NC(=O)c1cc2ccccc2n1C + Cc1nc(Nc2ncc(C(=O)Nc3c(C)cccc3Cl)s2)cc(N2CCN(CCO)CC2)n1 [Dasatinib] (partner 0.075 µM)
How it was run: as §1

[3] = compound: COc1cc(-c2nn([C@H]3CC[C@H](N4CCN(C(C)=O)CC4)CC3)c3ncnc(N)c23)ccc1NC(=O)c1cc2ccccc2n1C + O=C(CCCCCCC(=O)Nc1ccccc1)NO [Vorinostat] (partner 1 µM)
How it was run: as §1

Cell Line | relative viability ([1]; first compound 0.01 µM) | relative viability ([1]; first compound 0.03162 µM) | relative viability ([1]; first compound 0.1 µM) | relative viability ([1]; first compound 0.3162 µM) | relative viability (Midostaurin + Bortezomib; first compound 0.01 µM) | relative viability (Midostaurin + Bortezomib; first compound 0.03162 µM) | relative viability (Midostaurin + Bortezomib; first compound 0.1 µM) | relative viability (Midostaurin + Bortezomib; first compound 0.3162 µM) | relative viability (Midostaurin + Linsitinib; first compound 0.01 µM) | relative viability (Midostaurin + Linsitinib; first compound 0.03162 µM) | relative viability (Midostaurin + Linsitinib; first compound 0.1 µM) | relative viability (Midostaurin + Linsitinib; first compound 0.3162 µM) | relative viability ([2]; first compound 0.0128 µM) | relative viability ([2]; first compound 0.04048 µM) | relative viability ([2]; first compound 0.128 µM) | relative viability ([2]; first compound 1.28 µM) | relative viability ([3]; first compound 0.0128 µM) | relative viability ([3]; first compound 0.04048 µM) | relative viability ([3]; first compound 0.128 µM) | relative viability ([3]; first compound 1.28 µM)
HCC-78 | 0.536 | 0.474 | 0.474 | 0.469 | 0.431 | 0.45 | 0.474 | 0.328 | 0.53 | 0.483 | 0.556 | 0.278 | 0.375 | 0.401 | 0.234 | 0.24 | 0.462 | 0.547 | 0.422 | 0.298
HCC-366 | 0.364 | 0.409 | 0.389 | 0.384 | 1.02 | 1.04 | 1.02 | 1.1 | 0.624 | 0.754 | 0.457 | 0.381 | 0.711 | 0.517 | 0.667 | 0.607 | 0.432 | 0.361 | 0.346 | 0.451
HCC-827 | 0.423 | 0.521 | 0.503 | 0.506 | 0.984 | 0.951 | 0.992 | 1.07 | 0.928 | 0.883 | 0.852 | 1.06 | 0.311 | 0.313 | 0.281 | 0.275 | 0.72 | 0.979 | 0.765 | 0.389
IA-LM |  |  |  |  | 0.85 |  | 0.946 | 0.783 | 0.557 | 0.378 | 0.711 | 0.673 |  |  |  |  | 1.07 | 0.877 | 0.79 | 0.912
LK-2 | 0.595 | 0.692 | 0.701 | 0.861 |  |  |  |  | 0.462 | 0.62 | 0.559 | 0.816 | 0.312 | 0.264 | 0.326 | 0.417 | 0.365 | 0.162 | 0.288 | 0.183
NCI-H358 | 0.123 | 0.134 | 0.114 | 0.136 |  |  |  |  | 0.818 | 0.607 | 0.813 | 0.599 | 0.188 | 0.138 | 0.151 | 0.163 | 0.706 | 0.672 | 0.523 | 0.646
NCI-H522 | 1.01 | 0.876 | 0.967 | 1.32 |  |  |  |  |  |  |  |  | 0.794 | 0.843 | 0.809 | 0.897 | 0.898 | 0.946 | 0.823 | 0.79
NCI-H596 |  |  |  |  | 0.902 | 1.12 | 1.1 | 1.07 | 1.09 | 1.17 | 1.08 | 1.15 | 0.564 | 0.73 | 0.573 | 0.559 | 0.779 | 0.703 | 0.629 | 0.611
NCI-H1299 |  |  |  |  | 1.03 | 0.987 | 0.95 | 1.01 | 0.943 | 0.91 | 0.95 | 0.616 |  |  |  |  |  |  |  | 
NCI-H1395 | 0.626 | 0.753 | 0.639 | 0.703 |  |  |  |  | 1.06 | 1.22 | 1.01 | 1.02 | 0.414 | 0.464 | 0.465 | 0.449 | 0.823 | 0.594 | 0.698 | 0.516
NCI-H1563 |  |  |  |  | 0.888 | 0.937 | 0.761 | 0.888 | 1.16 | 1.2 | 1.03 | 1.11 | 0.481 | 0.484 | 0.532 | 0.488 |  |  |  | 
NCI-H1623 |  |  |  |  |  |  |  |  |  |  |  |  | 0.526 | 0.497 | 0.557 | 0.572 |  |  |  | 
NCI-H1648 | 0.35 |  |  | 0.285 |  |  |  |  |  |  |  |  |  |  |  |  | 0.536 | 0.48 | 0.526 | 0.341
NCI-H1650 | 0.297 | 0.409 | 0.343 | 0.522 | 0.214 | 0.227 | 0.206 | 0.213 |  |  |  |  | 0.265 | 0.304 | 0.32 | 0.29 | 0.575 | 0.829 | 0.663 | 0.578
NCI-H1703 |  |  |  |  | 0.427 | 0.256 | 0.373 | 0.153 | 0.838 | 0.69 | 0.672 | 0.296 |  |  |  |  |  |  |  | 
NCI-H1792 | 0.593 | 0.709 | 0.635 | 0.634 | 0.943 | 0.949 | 0.911 | 0.949 | 0.577 | 0.556 | 0.499 | 0.526 | 0.505 | 0.731 | 0.749 | 0.645 |  |  |  | 
NCI-H1793 | 0.305 | 0.349 | 0.354 | 0.342 |  |  |  |  | 1.08 | 0.77 | 0.651 | 0.559 | 0.392 | 0.35 | 0.401 | 0.346 | 0.981 | 0.658 | 0.794 | 0.528
NCI-H1944 | 0.36 | 0.402 | 0.318 | 0.35 |  |  |  |  | 1.17 | 1.25 | 1.31 | 1.28 | 0.221 | 0.203 | 0.224 | 0.206 | 0.654 | 0.641 | 0.578 | 0.416
NCI-H2170 | 0.394 | 0.397 | 0.406 | 0.454 |  |  |  |  |  |  |  |  | 0.554 | 0.494 | 0.559 | 0.592 | 1.09 | 0.969 | 0.8 | 0.704
NCI-H2342 | 0.477 | 0.538 | 0.491 | 0.547 |  |  |  |  |  |  |  |  | 0.312 | 0.309 | 0.335 | 0.323 | 0.762 | 0.758 | 0.861 | 0.825
SK-MES-1 | 0.326 | 0.359 | 0.27 | 0.246 |  |  |  |  | 1.05 | 0.954 | 1.06 | 1.07 | 0.44 | 0.34 | 0.378 | 0.384 | 1.17 | 1.14 | 1.08 | 1.13
SW 900 | 0.574 | 0.587 | 0.545 | 0.639 |  |  |  |  |  |  |  |  | 0.616 | 0.707 | 0.487 | 0.578 | 0.806 | 0.582 | 0.511 | 0.621

— the supplement of paper PMC10307832
